This is an account of results in patent US6073962A (priority 1994, dated 2000).

The series concerns mouse. Particulars: in vivo, po.

For the compound `NN.NN.O=[N+]([O-])[O-].O=[N+]([O-])[O-].[Zn+2]` [Ex. 1, Zn.2(N2 H4).2(NO3)], the “Death rate of 30 mg adm.” value is 0/10, the “Death rate of 300 mg adm.” value is given as 0/10, the “Death rate of 2000 mg adm.” value is listed as 10/10 and the LD50 level is recorded as over 300 mg/kg.
With `NNC(=O)NN.NNC(=O)NN.NNC(=O)NN.O=[N+]([O-])[O-].O=[N+]([O-])[O-].[Zn+2]` [Ex. 25, Zn.3(CDH).2(NO3)], the “Death rate of 30 mg adm.” value is 0/10, the “Death rate of 300 mg adm.” value is reported as 3/10, the “Death rate of 2000 mg adm.” value is given as 10/10 and the LD50 level is reported as over 300.
